The test deals with creeping bentgrass (variety Penncross) turf. The experiment in a line: Bentgrass color rating after foliar spray (Example 4). The test is classed as in vivo. The following applies: 6 weeks after treatment; iprodione 4 oz/1000 sq. ft.; Pigment Green 7 6.8 or 13.6 g/1000 sq. ft. in combination, 13.6 g alone. An excerpt:
Pigment Green 7 was suspended in water and applied as a foliar spray to creeping bentgrass (variety Penncross) turf with a pressurized sprayer at a spray volume of 1.37 gallons of water per 1000 sq. ft. (ca. 560 l/ha). Pigment Green 7 was applied at rates of 6.8, 13.9, and 20.4 grams per 1000 sq. ft. (0.73, 1.5, and 2.2 kg/ha, respectively). Each treatment was replicated 4 times. An untreated plot was included and was also replicated four times. The average color of the bentgrass was visually evaluated at 6 weeks after treatment. Color was evaluated on a qualitative scale from 1-9, with 9 being the highest quality and 1 the lowest quality.
The procedure of Example 2 was repeated using iprodione fungicide (in the form of 26 GT brand iprodione fungicide) at 4 oz/1000 sq. ft. (ca. 1.3 mL/m2), iprodione at 4 oz/1000 sq. ft. (ca. 1.3 mL/m2) plus Pigment Green 7 at 6.8 g/1000 sq. ft. (0.73 kg/ha), iprodione at 4 oz/1000 sq. ft. plus Pigment Green 7 at 13.6 g/1000 sq. ft. (1.5 kg/ha), and Pigment Green 7 at 13.6 g/1000 sq. ft. (1.5 kg/ha). At 6 weeks after treatment, the color ratings were as follows.

`CC(C)NC(=O)N1CC(=O)N(c2cc(Cl)cc(Cl)c2)C1=O` [iprodione, 3-(3,5-dichlorophenyl)-N-(l-methylethyl)-2,4-dioxo-1-imidazolidinecarbox-amide, reference compound]: the “Color rating versus untreated check” value was “not significantly different than the untreated check”.

Values taken from US20180303101A1, “METHOD OF IMPROVING GRASS QUALITY” (priority 2004, published 2018).
